In patent US6306893A, “Taxoid derivatives and process for producing the same” (Ensuiko Sugar Refining Company, Ltd, priority 2000, dated 2001):
≈ marks a conversion by molar mass, not a printed value. Entries after “also recorded” stand apart in the source; their conditions may differ.

Legend:
P388 leukemia cells = assay: Antitumor test in mice implanted with P388 leukemia cells: survival days; type: in vivo, mouse; details: for Median of Survival Days: P388 i.p. in CDF1 male mice, control 7 days; for Median of Survival Days / % T/C: 20 mg/kg i.p., 5 consecutive days; for % T/C: median survival days treated × 100 / median of control
From the text: ^a) Median of survival days of each treated group (day) ×
100/Median of survival days of control group (day)

[1] = Solubility in water (18 h stirring, filtration, HPLC); details: for solubility at 18 h: water
Method: 10 mg of each of paclitaxel, 7-GAG-PT, 7-MAG-PT, 10-GAG-DT (α-anomer), 10-GAG-DT (β-anomer) and 10-MAG-DT (α-anomer)was weighed. To those were added 5 ml of water and the mixture was stirred for 18 hours. After completion of the stirring, supernatant was filtered through a membrane filter (0.45 μm), and the filtrate was analyzed by HPLC. The conditions of HPLC analysis were as follows.

[2] = Change in body weight of P388 leukemia cell implanted mice; type: in vivo, mouse; details: after i.p. administration
Method: FIG. 1 is a graph illustrating effect of taxoid derivatives on the body weight of P388 leukemia cell implanted mouse.
The mice used were 7 weeks age CDFl mice (male). P388 leukemia cells subcultured in DBA/2 mouse abdominal cavity were injected in the abdominal cavity in an amount of 10^6 cells per mouse. In the case of paclitaxel, samples were dissolved in a solution of ethanol:cremophor=1:1 to a concentration of 6 mg/ml and then diluted 30 times with physiological saline. This was administered intraperitoneally in a dose of 0.1 ml/10 g mouse/time. In the case of taxoid derivatives, samples were dissolved in a solution of ethanol:cremophor=1:1 to a concentration of 60 mg/ml and then diluted 30 times with physiological saline. This was administered intraperitoneally in a dose of 0.1 ml/10 g mouse/time.
The tests were performed by administering the sample for consecutive 5 days starting from the day next to the day when the P388 leukemia cells were injected into the abodominal cavity and observing survival days and change in body weight.

[3] = cited from earlier work; for Solubility in water: background statement
[4] = ratio to paclitaxel (0.4 μg/ml)

Row | SMILES | solubility at 18 h [1] [µg/mL] | Median of Survival Days (P388 leukemia cells) [days] | % T/C (P388 leukemia cells) [%] | Solubility in water relative to paclitaxel [1] [times] | further results
1 | CC(=O)O[C@@]12CO[C@@H]1C[C@H](O)[C@@]1(C)C(=O)[C@H](OC(=O)COC3O[C@H](CO)[C@H](O)[C@H](O)[C@H]3O)C3=C(C)[C@@H](OC(=O)[C@H](O)[C@@H](NC(=O)OC(C)(C)C)c4ccccc4)C[C@@](O)([C@@H](OC(=O)c4ccccc4)[C@H]21)C3(C)C (stereo partly shown) [10-GAG-DT, Galactosyloxyacetyl-10-docetaxel] |  |  |  |  | Antitumor / physiological activity (P388 leukemia cells; P388 leukemia implanted mice): excellent antitumor activity; Survival effect as compared with paclitaxel (P388 leukemia cells; P388 leukemia implanted mice, ratio to paclitaxel): 1.2 times
2 | CC(=O)O[C@H]1C(=O)[C@]2(C)[C@@H](OC(=O)COC3O[C@H](CO)[C@H](O)[C@H](O)[C@H]3O)C[C@H]3OC[C@@]3(OC(C)=O)[C@H]2[C@H](OC(=O)c2ccccc2)[C@]2(O)C[C@H](OC(=O)[C@H](O)[C@@H](NC(=O)c3ccccc3)c3ccccc3)C(C)=C1C2(C)C (stereo partly shown) [7-GAG-PT, Galactosyloxyacetyl-7-paclitaxel] | 67.8 (≈ 63.1 µM) |  |  |  | Solubility in water relative to paclitaxel [1, 4]: 169 times
3 | CC(=O)O[C@H]1C(=O)[C@@]2(C)[C@H]([C@H](OC(=O)c3ccccc3)[C@]3(O)C[C@H](OC(=O)[C@H](O)[C@@H](NC(=O)c4ccccc4)c4ccccc4)C(C)=C1C3(C)C)[C@]1(OC(C)=O)CO[C@@H]1C[C@@H]2O [Paclitaxel, paclitaxel] |  | 10 | 143 |  | Change in body weight [2]: abrupt decrease in body weight; also recorded: decreased abruptly; Solubility in water [3]: very low solubility in water; also recorded: low solubility in water
4 | CC(=O)O[C@@]12CO[C@@H]1C[C@H](O)[C@@]1(C)C(=O)[C@H](OC(=O)CO[C@H]3O[C@H](CO)[C@@H](O)[C@H](O)[C@@H]3O)C3=C(C)[C@@H](OC(=O)[C@H](O)[C@@H](NC(=O)OC(C)(C)C)c4ccccc4)C[C@@](O)([C@@H](OC(=O)c4ccccc4)[C@H]21)C3(C)C [10-MAG-DT (α-anomer), Mannosyloxyacetyl-10-docetaxel] | 1040 (≈ 1010 µM) | 9 | 129 | 2596 | 
5 | CC(=O)O[C@@]12CO[C@@H]1C[C@H](O)[C@@]1(C)C(=O)[C@H](OC(=O)CO[C@H]3O[C@H](CO)[C@H](O)[C@H](O)[C@H]3O)C3=C(C)[C@@H](OC(=O)[C@H](O)[C@@H](NC(=O)OC(C)(C)C)c4ccccc4)C[C@@](O)([C@@H](OC(=O)c4ccccc4)[C@H]21)C3(C)C [10-GAG-DT (α-anomer), Galactosyloxyacetyl-10-docetaxel] | 482 (≈ 469 µM) | 12 | 171 | 1204 | 
6 | CC(=O)O[C@H]1C(=O)[C@]2(C)[C@@H](OC(=O)COC3O[C@H](CO)[C@@H](O)[C@H](O)[C@@H]3O)C[C@H]3OC[C@@]3(OC(C)=O)[C@H]2[C@H](OC(=O)c2ccccc2)[C@]2(O)C[C@H](OC(=O)[C@H](O)[C@@H](NC(=O)c3ccccc3)c3ccccc3)C(C)=C1C2(C)C (stereo partly shown) [7-MAG-PT, Mannosyloxyacetyl-7-paclitaxel] | 103 (≈ 95.9 µM) |  |  |  | Solubility in water relative to paclitaxel [1, 4]: 257 times
7 | CC(=O)O[C@@]12CO[C@@H]1C[C@H](O)[C@@]1(C)C(=O)[C@H](O)C3=C(C)[C@@H](OC(=O)[C@H](O)[C@@H](NC(=O)OC(C)(C)C)c4ccccc4)C[C@@](O)([C@@H](OC(=O)c4ccccc4)[C@H]21)C3(C)C [Docetaxel, docetaxel] |  |  |  |  | Solubility in water of docetaxel relative to taxol ([3]; I. Ringel et al., J. Natl. Cancer Inst., 83, 288 (1991)): 35 times; Solubility in water [3]: very low solubility in water
8 | CC(=O)O[C@@]12CO[C@@H]1C[C@H](O)[C@@]1(C)C(=O)[C@H](OC(=O)COC3O[C@H](CO)[C@@H](O)[C@H](O)[C@@H]3O)C3=C(C)[C@@H](OC(=O)[C@H](O)[C@@H](NC(=O)OC(C)(C)C)c4ccccc4)C[C@@](O)([C@@H](OC(=O)c4ccccc4)[C@H]21)C3(C)C (stereo partly shown) [10-MAG-DT, Mannosyloxyacetyl-10-docetaxel] |  |  |  |  | Survival effect as compared with paclitaxel (P388 leukemia cells; P388 leukemia implanted mice, versus paclitaxel): substantially equivalent to that of paclitaxel
9 | CC(=O)O[C@@]12CO[C@@H]1C[C@H](O)[C@@]1(C)C(=O)[C@H](OC(=O)CO[C@@H]3O[C@H](CO)[C@H](O)[C@H](O)[C@H]3O)C3=C(C)[C@@H](OC(=O)[C@H](O)[C@@H](NC(=O)OC(C)(C)C)c4ccccc4)C[C@@](O)([C@@H](OC(=O)c4ccccc4)[C@H]21)C3(C)C [10-GAG-DT (β-anomer), Galactosyloxyacetyl-10-docetaxel] | 301 (≈ 293 µM) | 12 | 171 | 753 | 
